Test results taken from patent publication US20230398130A1, “METHODS AND COMPOSITIONS FOR DIFFERENTIATING STEM CELLS” (Massachusetts Institute of Technology, priority 2020, published 2023).

How the values were obtained:
ISC-enriched organoids [1] = experiment: Primary screen, 384-well 2.5-D organoid differentiation (ENR+CD, 6 days): basal lysozyme secretion (LYZ.NS); format: cell-based, murine; conditions: for Dose.FC.LYZ.NS (log 2 fold change): vs plate median; for Dose.FC.LYZ.NS: FC vs plate median; for SSMD.LYZ.NS: strictly standardized mean difference
Description: (§1) High-throughput screening.

ISC-enriched organoids [2] = experiment: Primary screen, 384-well 2.5-D organoid differentiation (ENR+CD, 6 days, Target Selective Inhibitor Library, vs whole-plate median): ATP (CellTiter-Glo 3D, CTG); conditions: for Dose.FC.CTG (log 2 fold change): vs plate median; for Dose.FC.CTG: FC vs plate median; for SSMD.CTG: strictly standardized mean difference
ISC-enriched organoids [3] = experiment: Primary screen, 384-well 2.5-D organoid differentiation (ENR+CD, 6 days): carbachol-induced lysozyme secretion (LYZ.S); format: cell-based, murine; conditions: primary screen; for Dose.FC.LYZ.S (log 2 fold change): vs plate median; for Dose.FC.LYZ.S: FC vs plate median; for Z.LYZ.S: standard z score; for SSMD.LYZ.S: strictly standardized mean difference
Description: as §1

[4] = Dose 0.08 uM, primary screen, standard z score
[5] = Dose 0.40 uM, primary screen, standard z score
[6] = Dose 2.00 uM, primary screen, standard z score
[7] = Dose 10.00 uM, primary screen, standard z score
[8] = primary screen, 1st of the 4 dose lines of the treatment (dose not given)
[9] = primary screen, 2nd of the 4 dose lines of the treatment (dose not given)
[10] = primary screen, 3rd of the 4 dose lines of the treatment (dose not given)
[11] = primary screen, 4th of the 4 dose lines of the treatment (dose not given)
[12] = 1st of the 4 dose lines of the treatment (dose not given)
[13] = 2nd of the 4 dose lines of the treatment (dose not given)
[14] = 3rd of the 4 dose lines of the treatment (dose not given)
[15] = 4th of the 4 dose lines of the treatment (dose not given)
[16] = Dose 0.08 uM, standard z score of FC
[17] = Dose 0.40 uM, standard z score of FC
[18] = Dose 2.00 uM, standard z score of FC
[19] = Dose 10.00 uM, standard z score of FC

COc1c(C)c(C(=O)c2ccc(N)c(C(=O)[O-])c2)n2ccccc12.[Na+] [SSR128129E]
Z.LYZ.NS (standard z score) (ISC-enriched organoids [1]; Dose 0.08 uM, primary screen): 0.807
Dose.FC.LYZ.NS (log 2 fold change) (ISC-enriched organoids [1]; Dose 0.08 uM, primary screen): 0.093
Z.LYZ.NS (standard z score) (ISC-enriched organoids [1]; Dose 0.40 uM, primary screen): 0.339
Dose.FC.LYZ.NS (log 2 fold change) (ISC-enriched organoids [1]; Dose 0.40 uM, primary screen): 0.039
Z.LYZ.NS (standard z score) (ISC-enriched organoids [1]; Dose 2.00 uM, primary screen): 0.257
Dose.FC.LYZ.NS (log 2 fold change) (ISC-enriched organoids [1]; Dose 2.00 uM, primary screen): 0.030
Z.LYZ.NS (standard z score) (ISC-enriched organoids [1]; Dose 10.00 uM, primary screen): −0.850
Dose.FC.LYZ.NS (log 2 fold change) (ISC-enriched organoids [1]; Dose 10.00 uM, primary screen): −0.098
Z.CTG (standard z score) (ISC-enriched organoids [2]; Dose 0.08 uM, primary screen): 0.210
Dose.FC.CTG (log 2 fold change) (ISC-enriched organoids [2]; Dose 0.08 uM, primary screen): 0.088
Z.CTG (standard z score) (ISC-enriched organoids [2]; Dose 0.40 uM, primary screen): 0.545
Dose.FC.CTG (log 2 fold change) (ISC-enriched organoids [2]; Dose 0.40 uM, primary screen): 0.228
Z.CTG (standard z score) (ISC-enriched organoids [2]; Dose 2.00 uM, primary screen): 0.291
Dose.FC.CTG (log 2 fold change) (ISC-enriched organoids [2]; Dose 2.00 uM, primary screen): 0.122
Z.CTG (standard z score) (ISC-enriched organoids [2]; Dose 10.00 uM, primary screen): −0.063
Dose.FC.CTG (log 2 fold change) (ISC-enriched organoids [2]; Dose 10.00 uM, primary screen): −0.026
Dose.FC.LYZ.S (log 2 fold change) (ISC-enriched organoids [3]; Dose 0.08 uM): 0.086
Dose.FC.LYZ.S (log 2 fold change) (ISC-enriched organoids [3]; Dose 0.40 uM): 0.122
Dose.FC.LYZ.S (log 2 fold change) (ISC-enriched organoids [3]; Dose 2.00 uM): 0.023
Dose.FC.LYZ.S (log 2 fold change) (ISC-enriched organoids [3]; Dose 10.00 uM): −0.095

O=C(O)CNC(=O)c1c(O)c2ccccc2n(Cc2ccccc2)c1=O [IOX2]
Dose.FC.LYZ.NS (ISC-enriched organoids [1]; Dose 0.08 uM, primary screen): 0.029 log 2 fold change
Z.LYZ.NS (ISC-enriched organoids [1]; [4]): 0.254
Dose.FC.LYZ.NS (ISC-enriched organoids [1]; Dose 0.40 uM, primary screen): 0.028 log 2 fold change
Z.LYZ.NS (ISC-enriched organoids [1]; [5]): 0.246
Dose.FC.LYZ.NS (ISC-enriched organoids [1]; Dose 2.00 uM, primary screen): 0.043 log 2 fold change
Z.LYZ.NS (ISC-enriched organoids [1]; [6]): 0.376
Dose.FC.LYZ.NS (ISC-enriched organoids [1]; Dose 10.00 uM, primary screen): −0.045 log 2 fold change
Z.LYZ.NS (ISC-enriched organoids [1]; [7]): −0.388
SSMD.LYZ.NS (ISC-enriched organoids [1]; [8]): 0.296
SSMD.LYZ.NS (ISC-enriched organoids [1]; [9]): 0.182
SSMD.LYZ.NS (ISC-enriched organoids [1]; [10]): 0.408
SSMD.LYZ.NS (ISC-enriched organoids [1]; [11]): −0.420
Dose.FC.CTG (ISC-enriched organoids [2]; Dose 0.08 uM, primary screen): 0.149 log 2 fold change
Z.CTG (ISC-enriched organoids [2]; [4]): 0.356
Dose.FC.CTG (ISC-enriched organoids [2]; Dose 0.40 uM, primary screen): 0.078 log 2 fold change
Z.CTG (ISC-enriched organoids [2]; [5]): 0.185
Dose.FC.CTG (ISC-enriched organoids [2]; Dose 2.00 uM, primary screen): 0.097 log 2 fold change
Z.CTG (ISC-enriched organoids [2]; [6]): 0.232
Dose.FC.CTG (ISC-enriched organoids [2]; Dose 10.00 uM, primary screen): 0.001 log 2 fold change
Z.CTG (ISC-enriched organoids [2]; [7]): 0.002
SSMD.CTG (ISC-enriched organoids [2]; [8]): 0.501
SSMD.CTG (ISC-enriched organoids [2]; [9]): 0.264
SSMD.CTG (ISC-enriched organoids [2]; [10]): 0.287
SSMD.CTG (ISC-enriched organoids [2]; [11]): 0.003
Dose.FC.LYZ.S (ISC-enriched organoids [3]; Dose 0.08 uM): 0.047 log 2 fold change
Dose.FC.LYZ.S (ISC-enriched organoids [3]; Dose 0.40 uM): 0.071 log 2 fold change
Dose.FC.LYZ.S (ISC-enriched organoids [3]; Dose 2.00 uM): 0.001 log 2 fold change
Dose.FC.LYZ.S (ISC-enriched organoids [3]; Dose 10.00 uM): −0.049 log 2 fold change
Z.LYZ.S (ISC-enriched organoids [3]; [12]): 0.305
Z.LYZ.S (ISC-enriched organoids [3]; [13]): 0.456
Z.LYZ.S (ISC-enriched organoids [3]; [14]): 0.005
Z.LYZ.S (ISC-enriched organoids [3]; [15]): −0.314
SSMD.LYZ.S (ISC-enriched organoids [3]; [12]): 0.359
SSMD.LYZ.S (ISC-enriched organoids [3]; [13]): 0.428
SSMD.LYZ.S (ISC-enriched organoids [3]; [14]): 0.006
SSMD.LYZ.S (ISC-enriched organoids [3]; [15]): −0.298

Ifenprodil Tartrate
Dose.FC.LYZ.NS (ISC-enriched organoids [1]; Dose 0.08 uM, primary screen): 0.056 log 2 fold change
Z.LYZ.NS (ISC-enriched organoids [1]; [4]): 0.492
Dose.FC.LYZ.NS (ISC-enriched organoids [1]; Dose 0.40 uM, primary screen): −0.019 log 2 fold change
Z.LYZ.NS (ISC-enriched organoids [1]; [5]): −0.161
Dose.FC.LYZ.NS (ISC-enriched organoids [1]; Dose 2.00 uM, primary screen): 0.123 log 2 fold change
Z.LYZ.NS (ISC-enriched organoids [1]; [6]): 1.068
Dose.FC.LYZ.NS (ISC-enriched organoids [1]; Dose 10.00 uM, primary screen): −0.219 log 2 fold change
Z.LYZ.NS (ISC-enriched organoids [1]; [7]): −1.909
SSMD.LYZ.NS (ISC-enriched organoids [1]; [8]): 0.372
SSMD.LYZ.NS (ISC-enriched organoids [1]; [9]): −0.116
SSMD.LYZ.NS (ISC-enriched organoids [1]; [10]): 0.504
SSMD.LYZ.NS (ISC-enriched organoids [1]; [11]): −1.176
Dose.FC.CTG (ISC-enriched organoids [2]; Dose 0.08 uM, primary screen): 0.102 log 2 fold change
Z.CTG (ISC-enriched organoids [2]; [4]): 0.243
Dose.FC.CTG (ISC-enriched organoids [2]; Dose 0.40 uM, primary screen): 0.111 log 2 fold change
Z.CTG (ISC-enriched organoids [2]; [5]): 0.265
Dose.FC.CTG (ISC-enriched organoids [2]; Dose 2.00 uM, primary screen): −0.003 log 2 fold change
Z.CTG (ISC-enriched organoids [2]; [6]): −0.008
Dose.FC.CTG (ISC-enriched organoids [2]; Dose 10.00 uM, primary screen): −1.034 log 2 fold change
Z.CTG (ISC-enriched organoids [2]; [7]): −2.471
SSMD.CTG (ISC-enriched organoids [2]; [8]): 0.218
SSMD.CTG (ISC-enriched organoids [2]; [9]): 0.279
SSMD.CTG (ISC-enriched organoids [2]; [10]): −0.009
SSMD.CTG (ISC-enriched organoids [2]; [11]): −1.277
Dose.FC.LYZ.S (ISC-enriched organoids [3]; Dose 0.08 uM): 0.050 log 2 fold change
Dose.FC.LYZ.S (ISC-enriched organoids [3]; Dose 0.40 uM): 0.017 log 2 fold change
Dose.FC.LYZ.S (ISC-enriched organoids [3]; Dose 2.00 uM): −0.023 log 2 fold change
Dose.FC.LYZ.S (ISC-enriched organoids [3]; Dose 10.00 uM): −0.301 log 2 fold change
Z.LYZ.S (ISC-enriched organoids [3]; [12]): 0.325
Z.LYZ.S (ISC-enriched organoids [3]; [13]): 0.107
Z.LYZ.S (ISC-enriched organoids [3]; [14]): −0.151
Z.LYZ.S (ISC-enriched organoids [3]; [15]): −1.947
SSMD.LYZ.S (ISC-enriched organoids [3]; [12]): 0.255
SSMD.LYZ.S (ISC-enriched organoids [3]; [13]): 0.091
SSMD.LYZ.S (ISC-enriched organoids [3]; [14]): −0.103
SSMD.LYZ.S (ISC-enriched organoids [3]; [15]): −1.030

Nc1ncnc2c1c(-c1cccc(OCc3ccccc3)c1)cn2C1CC(CN2CCCC2)C1 (stereo not shown) [NVP-ADW742]
Dose.FC.LYZ.NS (ISC-enriched organoids [1]; Dose 0.08 uM, primary screen): 0.142 log 2 fold change
Z.LYZ.NS (ISC-enriched organoids [1]; [16]): 1.239
Dose.FC.LYZ.NS (ISC-enriched organoids [1]; Dose 0.40 uM, primary screen): 0.172 log 2 fold change
Z.LYZ.NS (ISC-enriched organoids [1]; [17]): 1.499
Dose.FC.LYZ.NS (ISC-enriched organoids [1]; Dose 2.00 uM, primary screen): −0.095 log 2 fold change
Z.LYZ.NS (ISC-enriched organoids [1]; [18]): −0.823
Dose.FC.LYZ.NS (ISC-enriched organoids [1]; Dose 10.00 uM, primary screen): −0.135 log 2 fold change
Z.LYZ.NS (ISC-enriched organoids [1]; [19]): −1.172
Dose.FC.CTG (ISC-enriched organoids [2]; Dose 0.08 uM, primary screen): 0.679 log 2 fold change
Z.CTG (ISC-enriched organoids [2]; [16]): 1.622
Dose.FC.CTG (ISC-enriched organoids [2]; Dose 0.40 uM, primary screen): 0.663 log 2 fold change
Z.CTG (ISC-enriched organoids [2]; [17]): 1.583
Dose.FC.CTG (ISC-enriched organoids [2]; Dose 2.00 uM, primary screen): 0.257 log 2 fold change
Z.CTG (ISC-enriched organoids [2]; [18]): 0.614
Dose.FC.CTG (ISC-enriched organoids [2]; Dose 10.00 uM, primary screen): −0.465 log 2 fold change
Z.CTG (ISC-enriched organoids [2]; [19]): −1.112
Dose.FC.LYZ.S (ISC-enriched organoids [3]; Dose 0.08 uM): 0.245 log 2 fold change
Dose.FC.LYZ.S (ISC-enriched organoids [3]; Dose 0.40 uM): 0.265 log 2 fold change
Dose.FC.LYZ.S (ISC-enriched organoids [3]; Dose 2.00 uM): −0.166 log 2 fold change
Dose.FC.LYZ.S (ISC-enriched organoids [3]; Dose 10.00 uM): −0.210 log 2 fold change
